Key:
Type in all cases: in vivo
[1] = test system: Italian ryegrass (Lolium multiflorum); assay: Test B pre-/postemergence plant response
Method in brief: (§1)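 Visual injury scores on a 0–100 scale (100 = complete control) relative to untreated plants, taken about 10 days post-treatment in greenhouse. Treatments were a directed preemergence soil spray and a postemergence spray at one- to two-leaf stage, using surfactant-containing solvent formulation.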

[2] = test system: barnyardgrass (Echinochloa crus-galli); assay: Test B pre-/postemergence plant response
Method in brief: as §1

corn (Zea mays) = assay: Test B pre-/postemergence plant response
Method in brief: as §1

[3] = test system: giant foxtail (Setaria faberii); assay: Test B pre-/postemergence plant response
Method in brief: as §1

kochia (Kochia scoparia) = assay: Test B pre-/postemergence plant response
Method in brief: as §1

[4] = test system: pigweed (Amaranthus retroflexus); assay: Test B pre-/postemergence plant response
Method in brief: as §1

[5] = test system: ragweed (common ragweed, Ambrosia elatior); assay: Test B pre-/postemergence plant response
Method in brief: as §1

[6] = test system: wheat (Triticum aestivum); assay: Test B pre-/postemergence plant response
Method in brief: as §1

[7] = test system: blackgrass (Alopecurus myosuroides); assay: Test B postemergence plant response
Method in brief: (§2)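 Visual injury ratings, 0 = no effect to 100 = complete control, versus untreated controls approximately 10 days after postemergence spraying in greenhouse. Plants were at one- to two-leaf stage, 2 to 10 cm tall, in loam soil/sand blend; a dash denotes no result.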

[8] = test system: galium (catchweed bedstraw, Galium aparine); assay: Test B postemergence plant response
Method in brief: as §2

[9] = test system: barnyardgrass (Echinochloa crus-galli); assay: Test C flooded paddy test plant response; conditions: Flood, 250 g ai/ha; scale of 0 to 100 where 0 is no effect and 100 is complete control; 13 to 15 days
Method in brief: (§3)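 Two-leaf stage → flood to 3 cm → compound into water → hold depth, greenhouse 13–15 d → visual score vs controls (0 none, 100 complete control).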

[10] = test system: ducksalad (Heteranthera limosa); assay: Test C flooded paddy test plant response; conditions: Flood, 250 g ai/ha; scale of 0 to 100 where 0 is no effect and 100 is complete control; 13 to 15 days
Method in brief: as §3

rice (Oryza sativa) = assay: Test C flooded paddy test plant response; conditions: Flood, 250 g ai/ha; scale of 0 to 100 where 0 is no effect and 100 is complete control; 13 to 15 days
Method in brief: as §3

[11] = test system: small-flower umbrella sedge (Cyperus difformis); assay: Test C flooded paddy test plant response; conditions: Flood, 250 g ai/ha; scale of 0 to 100 where 0 is no effect and 100 is complete control; 13 to 15 days
Method in brief: as §3

[12] = 31 g ai/ha, Preemergence, 0 to 100 scale where 0 is no effect and 100 is complete control
[13] = 125 g ai/ha, postemergence, 0 to 100 scale, 0 no effect, 100 complete control
[14] = Postemergence, 31 g ai/ha, 0 to 100 scale (0 no effect, 100 complete control)
[15] = Preemergence, 125 g ai/ha, 0 to 100 scale (0 no effect, 100 complete control)
[16] = 31 g ai/ha, Postemergence, 0 to 100 scale, 0 no effect, 100 complete control
[17] = Preemergence, 31 g ai/ha, 0 to 100 scale (0 no effect, 100 complete control)
[18] = Preemergence, 125 g ai/ha, 0 to 100 scale where 0 is no effect and 100 is complete control

Clc1cnc(Oc2ccccc2-c2cnccn2)nc1 [Compound 163]
Plant response rating, Ryegrass, Italian [1, 12]: 0
Plant response rating, Ryegrass, Italian [1, 13]: 0
Plant response rating, Ryegrass, Italian [1, 14]: 0
Ryegrass, Italian plant response rating [1, 15]: 0
Plant response rating, Barnyardgrass [2, 12]: 0
Plant response rating, Barnyardgrass [2, 13]: 0
Plant response rating, Barnyardgrass [2, 14]: 0
Barnyardgrass plant response rating [2, 15]: 0
Plant response rating, Corn (corn (Zea mays); [13]): 10
Plant response rating, Corn (corn (Zea mays); [14]): 0
Plant response rating, Foxtail, Giant [3, 12]: 0
Plant response rating, Foxtail, Giant [3, 13]: 10
Plant response rating, Foxtail, Giant [3, 14]: 0
Foxtail, Giant plant response rating [3, 15]: 0
Plant response rating, Kochia (kochia (Kochia scoparia); [12]): 0
Plant response rating, Kochia (kochia (Kochia scoparia); [13]): 50
Plant response rating, Kochia (kochia (Kochia scoparia); [14]): 10
Kochia plant response rating (kochia (Kochia scoparia); [15]): 0
Plant response rating, Pigweed [4, 12]: 0
Plant response rating, Pigweed [4, 13]: 30
Plant response rating, Pigweed [4, 14]: 20
Pigweed plant response rating [4, 15]: 30
Plant response rating, Ragweed [5, 12]: 0
Plant response rating, Ragweed [5, 13]: 30
Plant response rating, Ragweed [5, 14]: 30
Ragweed plant response rating [5, 15]: 40
Plant response rating, Wheat [6, 13]: 0
Plant response rating, Wheat [6, 14]: 0
Plant response rating, Blackgrass [7, 13]: 20
Plant response rating, Blackgrass [7, 14]: 20
Plant response rating, Galium [8, 13]: 30
Plant response rating, Galium [8, 14]: 20
Barnyardgrass plant response rating [9]: 0
Ducksalad plant response rating [10]: 0
Rice plant response rating (rice (Oryza sativa)): 0
Sedge, Umbrella plant response rating [11]: 0

COc1cccc(Oc2ncc(Cl)cn2)c1-c1cc(C(F)F)no1 [Compound 103]
Plant response rating, Ryegrass, Italian [1, 16]: 0
Plant response rating, Ryegrass, Italian [1, 13]: 10
Ryegrass, Italian plant response rating [1, 17]: 0
Plant response rating, Ryegrass, Italian [1, 18]: 0
Plant response rating, Barnyardgrass [2, 16]: 0
Plant response rating, Barnyardgrass [2, 13]: 40
Barnyardgrass plant response rating [2, 17]: 0
Plant response rating, Barnyardgrass [2, 18]: 50
Plant response rating, Corn (corn (Zea mays); [16]): 0
Plant response rating, Corn (corn (Zea mays); [13]): 30
Plant response rating, Foxtail, Giant [3, 16]: 40
Plant response rating, Foxtail, Giant [3, 13]: 70
Foxtail, Giant plant response rating [3, 17]: 50
Plant response rating, Foxtail, Giant [3, 18]: 90
Plant response rating, Kochia (kochia (Kochia scoparia); [16]): 0
Plant response rating, Kochia (kochia (Kochia scoparia); [13]): 30
Kochia plant response rating (kochia (Kochia scoparia); [17]): 0
Plant response rating, Kochia (kochia (Kochia scoparia); [18]): 10
Plant response rating, Pigweed [4, 16]: 30
Plant response rating, Pigweed [4, 13]: 80
Pigweed plant response rating [4, 17]: 100
Plant response rating, Pigweed [4, 18]: 100
Plant response rating, Ragweed [5, 16]: 20
Plant response rating, Ragweed [5, 13]: 60
Ragweed plant response rating [5, 17]: 0
Plant response rating, Ragweed [5, 18]: 10
Plant response rating, Wheat [6, 16]: 0
Plant response rating, Wheat [6, 13]: 0
Plant response rating, Blackgrass [7, 16]: 30
Plant response rating, Blackgrass [7, 13]: 90
Plant response rating, Galium [8, 16]: 90
Plant response rating, Galium [8, 13]: 100
Barnyardgrass plant response rating [9]: 60
Ducksalad plant response rating [10]: 40
Rice plant response rating (rice (Oryza sativa)): 30
Sedge, Umbrella plant response rating [11]: 80

FC(F)(F)C(F)(F)c1cc(-c2ccccc2Oc2ncc(Cl)cn2)no1 [Compound 142]
Plant response rating, Ryegrass, Italian [1, 12]: 0
Plant response rating, Ryegrass, Italian [1, 13]: 0
Ryegrass, Italian plant response rating [1, 15]: 0
Plant response rating, Barnyardgrass [2, 16]: 0
Plant response rating, Barnyardgrass [2, 12]: 0
Plant response rating, Barnyardgrass [2, 13]: 0
Barnyardgrass plant response rating [2, 15]: 0
Plant response rating, Corn (corn (Zea mays); [16]): 0
Plant response rating, Corn (corn (Zea mays); [13]): 20
Plant response rating, Foxtail, Giant [3, 16]: 0
Plant response rating, Foxtail, Giant [3, 12]: 0
Plant response rating, Foxtail, Giant [3, 13]: 0
Foxtail, Giant plant response rating [3, 15]: 20
Plant response rating, Kochia (kochia (Kochia scoparia); [12]): 0
Plant response rating, Kochia (kochia (Kochia scoparia); [13]): 20
Kochia plant response rating (kochia (Kochia scoparia); [15]): 0
Plant response rating, Pigweed [4, 12]: 0
Plant response rating, Pigweed [4, 13]: 20
Pigweed plant response rating [4, 15]: 0
Plant response rating, Ragweed [5, 12]: 0
Plant response rating, Ragweed [5, 13]: 0
Ragweed plant response rating [5, 15]: 0
Plant response rating, Wheat [6, 13]: 0
Plant response rating, Blackgrass [7, 16]: 0
Plant response rating, Blackgrass [7, 13]: 0
Plant response rating, Galium [8, 13]: 10
Barnyardgrass plant response rating [9]: 0
Ducksalad plant response rating [10]: 0
Rice plant response rating (rice (Oryza sativa)): 0
Sedge, Umbrella plant response rating [11]: 0

CC(=O)c1cc(-c2ccccc2Oc2ncc(Cl)cn2)on1 [Compound 218]
Plant response rating, Ryegrass, Italian [1, 12]: 0
Plant response rating, Ryegrass, Italian [1, 13]: 0
Plant response rating, Ryegrass, Italian [1, 14]: 0
Ryegrass, Italian plant response rating [1, 15]: 0
Plant response rating, Barnyardgrass [2, 12]: 0
Plant response rating, Barnyardgrass [2, 13]: 0
Plant response rating, Barnyardgrass [2, 14]: 0
Barnyardgrass plant response rating [2, 15]: 50
Plant response rating, Corn (corn (Zea mays); [13]): 0
Plant response rating, Corn (corn (Zea mays); [14]): 0
Plant response rating, Foxtail, Giant [3, 12]: 0
Plant response rating, Foxtail, Giant [3, 13]: 0
Plant response rating, Foxtail, Giant [3, 14]: 0
Foxtail, Giant plant response rating [3, 15]: 60
Plant response rating, Kochia (kochia (Kochia scoparia); [12]): 0
Plant response rating, Kochia (kochia (Kochia scoparia); [13]): 0
Plant response rating, Kochia (kochia (Kochia scoparia); [14]): 0
Kochia plant response rating (kochia (Kochia scoparia); [15]): 0
Plant response rating, Pigweed [4, 12]: 0
Plant response rating, Pigweed [4, 13]: 40
Plant response rating, Pigweed [4, 14]: 0
Pigweed plant response rating [4, 15]: 90
Plant response rating, Ragweed [5, 12]: 0
Plant response rating, Ragweed [5, 13]: 0
Plant response rating, Ragweed [5, 14]: 0
Ragweed plant response rating [5, 15]: 0
Plant response rating, Wheat [6, 13]: 0
Plant response rating, Wheat [6, 14]: 0
Plant response rating, Blackgrass [7, 13]: 0
Plant response rating, Blackgrass [7, 14]: 0
Plant response rating, Galium [8, 13]: 10
Plant response rating, Galium [8, 14]: 0
Barnyardgrass plant response rating [9]: 0
Ducksalad plant response rating [10]: 0
Rice plant response rating (rice (Oryza sativa)): 0
Sedge, Umbrella plant response rating [11]: 0
